The source of these data is ChEMBL document CHEMBL1129818, “Discovery of anti-influenza A virus activity of a corynanthe-type indole alkaloid, hirsutine, in vitro and the structure-activity relationship of natural and synthetic analogs” (Bioorg Med Chem Lett, 1997).

Each structure is given as a SMILES string. In brackets after ≈: the same amount, converted by molar mass. Several values for one entry are separate records, joined by “and”; a condition that tells them apart may be missing. Identical values can stand only once.

The subject of assay [1] is MDCK. The assay is described as follows: Effective concentration required to determine Anti-influenza A virus Ishikawa/7/82 in MDCK cells by MTT assay. It is filed as functional, cell-based. The conditions noted are these: Canis lupus familiaris. (In general: Tetrazolium dyes change colour on reduction, which living cells bring about.)
In assay [2] the test system is MDCK. Description: Cytotoxicity was measured by Anti-influenza A virus Ishikawa/7/82 in MDCK cells by MTT assay. The class given is functional. The conditions noted are these: Canis lupus familiaris.
Assay [3] in a line: Selectivity index for effective concentration to that of Cytotoxicity in MDCK cells by MTT assay. The class given is functional.
Assay [4] concerns MDCK. Description: The compound was evaluated for inhibitory effect on the replication of influenza A subtype H3N2 Philippine/2/82 in MDCK cells. It is filed as functional, cell-based. The settings on record: Canis lupus familiaris.
In assay [5] the test system is MDCK. The assay is described as follows: The compound was evaluated for inhibitory effect on the replication of influenza B norway/1/80 strain in MDCK cells. The class given is functional, cell-based. The conditions noted are these: Canis lupus familiaris.
For assay [6], the system named is MDCK. The assay is described as follows: The compound was evaluated for inhibitory effect on the replication of influenza B Singapore/222/79 strain in MDCK cells. The conditions noted are these: Canis lupus familiaris. It is filed as functional, cell-based.
Assay [7] has as its system MDCK. The assay is described as follows: The compound was evaluated for inhibitory effect on the replication of influenza A subtype H1N1 PR8/34 strain in MDCK cells. It is filed as functional, cell-based. The settings on record: Canis lupus familiaris.
Assay [8] has as its system MDCK. The assay is described as follows: The compound was evaluated for inhibitory effect on the replication of influenza A subtype H1N1 yamagata/120/86 strain in MDCK cells. It is filed as functional, cell-based. The conditions noted are these: Canis lupus familiaris.
The test system of assay [9] is MDCK. Description: The compound was evaluated for inhibitory effect on the replication of influenza A subtype H2N2 Adachi/2/57 in MDCK cells. It is filed as functional, cell-based. The conditions noted are these: Canis lupus familiaris.
Assay [10] relates to MDCK. Description: The compound was evaluated for inhibitory effect on the replication of influenza A subtype H2N2 murakami/4/64 strain in MDCK cells. It is filed as functional, cell-based. The conditions noted are these: Canis lupus familiaris.
The nature of assay [11]: Selectivity index ratio of CC50 / EC50 was determined. It is filed as functional.
In assay [12] the test system is MDCK. Description: The compound was evaluated for inhibitory effect on the replication of influenza A subtype H1N1 Bangkok/10/83 strain in MDCK cells. The class given is functional, cell-based. The conditions noted are these: Canis lupus familiaris.
The test system of assay [13] is MDCK. Description: The compound was evaluated for cytotoxicity by MTT assay in MDCK cells. It is filed as functional. The settings on record: Canis lupus familiaris.
Assay [14] concerns MDCK. Description: The compound was evaluated for inhibitory effect on the replication of influenza A subtype H3N2 ishikawa/7/82 in MDCK cells. The settings on record: Canis lupus familiaris. It is filed as functional, cell-based.

For the compound `CC[C@H]1CN2CC[C@]3(O)C(=Nc4ccccc43)[C@H]2C[C@@H]1/C(=C\OC)C(=O)OC`, the concentration giving a half-maximal response (EC50) (as a rule, the concentration giving half of the maximal effect) in assay [1] was greater than 100 µg/mL. In addition, in [2], the CC50 (in general, the concentration giving 50% cytotoxicity) was greater than 100 µg/mL.
Turning to `CC[C@H]1CN2CCc3c([nH]c4ccccc34)[C@@H]2C[C@@H]1/C(=C/OC)C(=O)OC` [DIHYDROCORYNANTHEINE], the EC50 in [1] is greater than 86.3 µg/mL. For the same compound, the CC50 in [2] was found to be 86.3 µg/mL (≈ 234 µM).
In [1], `CC[C@@H]1CN2CCc3c([nH]c4ccccc34)[C@@H]2C[C@@H]1/C(=C\OC)C(=O)OC` [CORYNANRHEIDINE] showed an EC50 greater than 45.1 µg/mL. In addition, in [2], the CC50 was 45.1 µg/mL (≈ 122 µM).
Take `CC[C@H]1CN2CCc3c(n(C)c4ccccc34)[C@H]2C[C@@H]1/C(=C\OC)C(=O)OC`: in assay [1], a half-maximal response (EC50) required 1.7 µg/mL (≈ 4.44 µM). Besides, the Selectivity index in assay [3] stood at 15.8. In [2], this compound gave a CC50 of 25.3 µg/mL (≈ 66.1 µM).
`CCO/C=C(\C(=O)OC)[C@H]1C[C@@H]2c3[nH]c4ccccc4c3CCN2C[C@@H]1CC` showed an EC50 in [1] of 0.9 µg/mL (≈ 2.35 µM). In assay [3], this compound yielded a Selectivity index of 36.4. For the same compound, in assay [2], the CC50 was 32.4 µg/mL (≈ 84.7 µM).
Regarding `CC[C@H]1CN2CCc3c([nH]c4ccccc34)[C@H]2C[C@@H]1/C(=C\OC)C(=O)OC` [HIRSUTINE], the EC50 in assay [4] is 0.57 µg/mL (≈ 1.55 µM); in [5] it was greater than 23.5 µg/mL; in assay [6] it was greater than 23.5 µg/mL; in assay [7], greater than 23.5 µg/mL; in [8] it was greater than 23.5 µg/mL; in [9] it was greater than 23.5 µg/mL. In addition, the EC50 in [10] was greater than 23.5 µg/mL; in assay [12], greater than 23.5 µg/mL; in assay [14], 0.4 µg/mL (≈ 1.09 µM). Besides, in assay [11], the Ratio is 58.8 and 41.2. For the same compound, half-maximal cytotoxicity in assay [13] (CC50) was put at 23.5 µg/mL (≈ 63.8 µM).
`CC[C@H]1CN2CCc3c([nH]c4cccc(OC)c34)[C@H]2C[C@@H]1/C(=C\OC)C(=O)OC` registered an EC50 in [1] of 0.5 µg/mL (≈ 1.25 µM). This compound also yielded a Selectivity index in assay [3] of 76.8. In assay [2], it took 40.7 µg/mL (≈ 102 µM) to reach half-maximal cytotoxicity (CC50).
As to `NC(=O)c1ncn([C@@H]2O[C@H](CO)[C@@H](O)[C@H]2O)n1` [RIBAVIRIN], the EC50 came to 6.1 µg/mL (≈ 25 µM) in [4]; 5.5 µg/mL (≈ 22.5 µM) in [5]; 8.5 µg/mL (≈ 34.8 µM) in [6]; 8.3 µg/mL (≈ 34 µM) in [7]; 11.7 µg/mL (≈ 47.9 µM) in [8]; 2.2 µg/mL (≈ 9.01 µM) in assay [9]. Further, the values for the EC50 in [10], in assay [12] and in assay [14] were 2.1 µg/mL (≈ 8.6 µM), 34.2 µg/mL (≈ 140 µM) and 7.9 µg/mL (≈ 32.3 µM), respectively. This compound showed a CC50 in assay [13] greater than 100 µg/mL.
With `CC[C@H]1C[N+]2(C)CCc3c([nH]c4ccccc34)[C@H]2C[C@@H]1/C(=C\OC)C(=O)OC` (some centres undefined), in assay [1], the EC50 was greater than 100 µg/mL. The compound also returned a CC50 in assay [2] greater than 100 µg/mL.
Regarding `C=C(C(=O)OC)[C@H]1C[C@@H]2c3[nH]c4ccccc4c3CCN2C[C@@H]1CC`, the EC50 in assay [1] is greater than 62.1 µg/mL. In addition, the CC50 in assay [2] was 62.1 µg/mL (≈ 183 µM).
Compound `CC[C@H]1CN2CCc3c([nH]c4ccccc34)[C@H]2C[C@@H]1/C(=C/OC)C(=O)O` registered an EC50 in assay [1] greater than 39.2 µg/mL. For the same compound, half-maximal cytotoxicity in assay [2] (CC50) was put at 39.2 µg/mL (≈ 111 µM).
The corresponding values for `CC[C@H]1CN2CCc3c([nH]c4ccccc34)[C@H]2C[C@@H]1/C(C=O)=C(/O)OC` are greater than 8.4 µg/mL and 8.4 µg/mL (≈ 23.7 µM).
The corresponding values for `CC[C@H]1CN2CCc3c([nH]c4ccccc34)[C@H]2C[C@@H]1C(/C=N\C)=C(/O)OC` are greater than 3.9 µg/mL and 3.9 µg/mL (≈ 10.6 µM).
The corresponding values for `CC[C@H]1CN2Cc3c(nc4ccccc4c3O)[C@H]2C[C@@H]1/C(=C\OC)C(=O)OC` are greater than 38.1 µg/mL and 38.1 µg/mL (≈ 99.6 µM).
In assay [1], `CC[C@H]1C[N+]2([O-])CCc3c([nH]c4ccccc34)[C@H]2C[C@@H]1/C(=C\OC)C(=O)OC` (some centres undefined) yielded an EC50 of 86.4 µg/mL (≈ 225 µM). The compound further registered a Selectivity index in assay [3] greater than 1.2. The CC50 in assay [2] was greater than 100 µg/mL.
The compound `C=CC1CN2CCc3c([nH]c4ccccc34)C2C[C@@H]1/C(=C\OC)C(=O)OC` (some centres undefined) displayed an EC50 in assay [1] of 1.8 µg/mL (≈ 4.91 µM). The compound also registered a Selectivity index in assay [3] of 14. This compound had a CC50 in assay [2] of 25.2 µg/mL (≈ 68.8 µM).
